Experimental data published in patent publication US12310954B2, “Salivary gland regeneration” (The Regents of the University of California, priority 2018, dated 2025).

Experiments:
SOX2^+ cells of the SLG = assay: Pilocarpine treatment of mice, SOX2/Ki67 immunostaining of sublingual gland; assay type: in vivo, mouse; conditions: wild-type mice, I.P. 4.5 mg/kg, vs saline
Protocol: Adult male C57BL/6 mice (aged between 6 and 8 weeks) were treated with pilocarpine (Sigma-Aldrich, P0472; 0.68 mg/ml in 0.9% sterile saline). Mice were anesthetized using isoflurane and injected I.P. with pilocarpine at a dose of 4.5 mg/kg bodyweight (200 μl), or 0.9% saline as a vehicle control. Mice were euthanized after 18 h and glands processed for immunofluorescent analysis. Whole-mount salivary gland and tissue section immunofluorescence analysis has been previously described (Knox et al., 2010). In brief, tissue was fixed with either ice-cold acetone/methanol (1:1) for 1 min or 4% PFA for 20-30 min followed by permeabilizing with 0.1-0.3% Triton X. Tissue was blocked overnight at 4° C. with 10% Donkey Serum (Jackson Laboratories, ME), 1% BSA (Sigma-Aldrich), and MOM IgG-blocking reagent (Vector Laboratories, CA) in 0.01% PBS-Tween 20. […] Antibodies were detected using Cy2-, Cy3-, or Cy5-conjugated secondary Fab fragment antibodies (Jackson Laboratories) and nuclei stained using Hoechst 33342 (1:1,000, Sigma-Aldrich). Fluorescence was analyzed using a Leica Sp5 confocal microscope and NIH ImageJ software. For immunofluorescent analyses (e.g., FIG. 2D), cells positively stained for markers were counted using ImageJ. Acinar cell size was measured using ImageJ. […]

[1] = long term oral administration; cited from earlier work
[2] = long term oral use in patients; cited from earlier work
[3] = continuous oral administration, irradiated mice, vs untreated controls; cited from earlier work

SMILES: CC[C@@H]1C(=O)OC[C@@H]1Cc1cncn1C [pilocarpine]
- percentage of SOX2^+ cells (SOX2^+ cells of the SLG; 18 h post-injection): not significantly changed
- percentage of proliferating SOX2^+ cells (SOX2^+Ki67^+ cells) (SOX2^+ cells of the SLG; sacrificed at 18 h): increased
- tumorigenicity [1]: not shown to be tumorigenic
- salivary gland function [2]: improves salivary gland function
- salivary flow [3]: promoted salivary flow
